These results are taken from ChEMBL document CHEMBL4732077, “Potent and orally active purine-based fetal hemoglobin inducers for treating β-thalassemia and sickle cell disease” (Eur J Med Chem, 2021).

Data set [1] is described as follows: AUC (0 to infinity) in Sprague-Dawley rat at 2 mg/kg, iv measured upto 24 hrs by LC-MS/MS analysis. Type of data set: ADME, organism-based. The arrangement: route intravenous, dose 2 mg/kg, time <=24. The settings on record: in vivo.
Data set [2] can be described thus: Induction of gamma-globin gene expression in human erythrocytes at 0.1 uM after 3 days by RT-PCR analysis relative to control. Format: functional, Erythrocyte. The following applies: time 3 day.
The nature of data set [3]: Volume of distribution at steady state in Sprague-Dawley rat at 2 mg/kg, iv measured upto 24 hrs by LC-MS/MS analysis. The following applies: in vivo, read-out: Vdss. Type of data set: ADME, organism-based.
Data set [4] is described as follows: Water solubility of compound at pH 7.4 after 24 hrs by LC/MS analysis. Type of data set: physicochemical. The following applies: buffer, pH 7.4, 24 h.
Data set [5] is described as follows: Cytotoxicity against human erythrocytes assessed as cell viability at 0.1 uM after 3 days alamar blue assay relative to control. Type of data set: cell-based, Erythrocyte. The following applies: time 3 day, read-out: Activity.
Data set [6] is described as follows: Clearance in Sprague-Dawley rat at 2 mg/kg, iv measured upto 24 hrs by LC-MS/MS analysis. Format: ADME, organism-based. The following applies: in vivo.
A short description of data set [7]: Half life in Sprague-Dawley rat at 2 mg/kg, iv measured upto 24 hrs by LC-MS/MS analysis. Type of data set: ADME, organism-based. The following applies: in vivo.
Data set [8] is described as follows: Induction of gamma-globin gene expression in human erythrocytes at 250 uM after 3 days by RT-PCR analysis relative to control. Type of data set: functional, Erythrocyte. The following applies: time 3 day.
A short description of data set [9]: Cytotoxicity against human erythrocytes assessed as cell viability after 3 days alamar blue assay. Type of data set: cell-based, Erythrocyte. The following applies: time 3 day. (The colour change of resazurin is a common sign of viable cells or microbes.)
The nature of data set [10]: Induction of gamma-globin gene expression in human erythrocytes at 1.25 uM after 3 days by RT-PCR analysis relative to control. Format: functional, Erythrocyte. The settings on record: time 3 day.
The nature of data set [11]: Cytotoxicity against human erythrocytes assessed as cell viability at 1.25 uM after 3 days alamar blue assay relative to control. Type of data set: cell-based, Erythrocyte. The following applies: time 3 day, read-out: Activity.
The nature of data set [12]: Induction of gamma-globin gene expression in human erythrocytes at 10 uM after 3 days by RT-PCR analysis relative to control. Type of data set: functional, Erythrocyte. The settings on record: time 3 day.
A short description of data set [13]: Cytotoxicity against human erythrocytes assessed as cell viability at 10 uM after 3 days alamar blue assay relative to control. Format: cell-based, Erythrocyte. The following applies: time 3 day, read-out: Activity.
Data set [14] is described as follows: Induction of gamma-globin gene expression in human erythrocytes at 5 uM after 3 days by RT-PCR analysis relative to control. Type of data set: functional, Erythrocyte. The settings on record: time 3 day.
Data set [15] in a line: Cytotoxicity against human erythrocytes assessed as cell viability at 5 uM after 3 days alamar blue assay relative to control. Type of data set: cell-based, Erythrocyte. The settings on record: time 3 day, read-out: Activity.
A short description of data set [16]: Induction of gamma-globin gene expression in human erythrocytes at 0.625 uM after 3 days by RT-PCR analysis relative to control. Format: functional, Erythrocyte. The settings on record: time 3 day.
Data set [17] in a line: Cytotoxicity against human erythrocytes assessed as cell viability at 0.625 uM after 3 days alamar blue assay relative to control. Type of data set: cell-based, Erythrocyte. The following applies: time 3 day, read-out: Activity.
Data set [18] in a line: Induction of gamma-globin gene expression in human erythrocytes at 15 uM after 3 days by RT-PCR analysis relative to control. Format: functional, Erythrocyte. The settings on record: time 3 day.
A short description of data set [19]: Cytotoxicity against human erythrocytes assessed as cell viability at 15 uM after 3 days alamar blue assay relative to control. Format: cell-based, Erythrocyte. The following applies: time 3 day, read-out: Activity.
Data set [20] is described as follows: Cytotoxicity against human erythrocytes assessed as cell viability at 0.4 uM after 3 days alamar blue assay relative to control. The following applies: time 3 day, read-out: Activity. Type of data set: cell-based, Erythrocyte.
The nature of data set [21]: Induction of gamma-globin gene expression in human erythrocytes at 0.4 uM after 3 days by RT-PCR analysis relative to control. Format: functional, Erythrocyte. The settings on record: time 3 day.
Data set [22] can be described thus: Induction of gamma-globin gene expression in human erythrocytes at 0.83 uM after 3 days by RT-PCR analysis relative to control. The settings on record: time 3 day. Type of data set: functional, Erythrocyte.
A short description of data set [23]: Cytotoxicity against human erythrocytes assessed as cell viability at 0.83 uM after 3 days alamar blue assay relative to control. Format: cell-based, Erythrocyte. The following applies: time 3 day, read-out: Activity.

Molecules are shown by their SMILES.

What is called AUC(0-inf) is the area under the concentration-time curve extrapolated to infinity. A lower AUC(0-inf) goes with less exposure. For orientation: solubility means how much of the substance goes into solution per volume. The low end stands for a poorly soluble substance, the high end for a readily soluble substance. For orientation: clearance means the rate of elimination divided by the concentration. As usually defined, the half-life is the time in which the quantity being followed falls by half. High values mean slow loss, low ones fast loss. For `CCn1cnc2c(Nc3cccc(NC(=O)C#Cc4ccc(C)cc4)c3)nc(N[C@H]3CC[C@H](O)CC3)nc21`, the total exposure AUC(0-inf) in [1] came out at 610 ng·h/mL. Moreover, the “fold change (FC)” value in [2] was 1.4. The Vd in data set [3] worked out at 3.8 L/kg. This compound also returned a solubility in [4] below 10 ng/mL. Moreover, in data set [5], the viability at 72 h, 0.1 µM was 61%. The clearance in data set [6] was found to be 60.9 mL/min/kg. The compound further had a half-life in data set [7] of 612 min.
What is called CC50 is the concentration at which the toxic effect on the cells reaches its halfway point. For the compound `CCCC(=O)[O-].[Na+]` [SODIUM BUTYRATE], the “fold change (FC)” value in data set [8] turned out to be 1.3. Also, the CC50 at 72 h in [9] is 222 µM.
On to `CCn1cnc2c(Nc3cccc(NC(=O)C#Cc4ccc(C)cc4)c3)nc(N3CCC(N(C)C)C3)nc21` (configuration not stated), for which, in data set [10], the “fold change (FC)” value came to 1.5. In addition, the viability at 72 h, 1.25 µM in data set [11] worked out at 53%.
For `CCN1CCN(c2nc(Nc3cccc(NC(=O)[C@@H]4C[C@H]4c4ccccc4)c3)c3ncn(CC)c3n2)CC1`, in that order: 1.1 and 77%.
As to `CCN1CCN(c2nc(Nc3cccc(NC(=O)N4CCN(c5ccc(F)cc5)CC4)c3)c3ncn(CC)c3n2)CC1`, the “fold change (FC)” value in data set [12] was 2.2. The viability at 72 h, 10 µM in [13] was determined as 8%.
In the case of `CCN1CCN(c2nc(Nc3cccc(NC(=O)/C=C/c4ccccc4)c3)c3ncn(CC)c3n2)CC1`, in data set [10], the “fold change (FC)” value was found to be 2.3. Also, in data set [11], the viability at 72 h, 1.25 µM amounted to 128%.
In the case of `CCn1cnc2c(Nc3cccc(NC(=O)C#Cc4ccc(C)cc4)c3)nc(N3CCN(CCF)CC3)nc21.Cl.Cl`, the “fold change (FC)” value in data set [14] was 4.6. The viability at 72 h, 5 µM in [15] was determined as 50%.
Turning to `CCn1cnc2c(Nc3cccc(NC(=O)C#Cc4ccc(C)cc4)c3)nc(N3CCC(N(C)C)CC3)nc21.Cl.Cl`, the “fold change (FC)” value in [16] turned out to be 1.7. For the same compound, in [17], the viability at 72 h, 0.625 µM amounted to 75%.
For `CCN1CCN(c2nc(Nc3cccc(C(=O)Nc4ccc(-c5ccccc5)cc4)c3)c3ncn(CC)c3n2)CC1`, in that order: 0.84 and 105%.
As for `Cc1ccc(C#CC(=O)Nc2cccc(Nc3nc(N[C@H]4CC[C@H](O)CC4)nc4ccccc34)c2)cc1`, the “fold change (FC)” value in data set [10] was found to be 1.8. Also, the viability at 72 h, 1.25 µM in data set [11] is 46%.
For `CCn1cnc2c(Nc3cccc(NC(=O)C#Cc4ccc(C)cc4)c3)nc(N3CCN(CCO)CC3)nc21`, in that order: 4.6 and 58%.
Regarding `Cc1ccc(C#CC(=O)Nc2cccc(Nc3ncnc4oc(-c5ccccc5)nc34)c2)cc1`, the “fold change (FC)” value in [12] came to 1.2. In [13], the viability at 72 h, 10 µM was determined as 103%.
For the compound `CCn1cnc2c(Nc3cccc(NC(=O)C#Cc4ccc(C)cc4)c3)ncnc21`, the “fold change (FC)” value in data set [18] came out at 4.1. For the same compound, the viability at 72 h, 15 µM in data set [19] stood at 75%.
With `CCn1cnc2c(Nc3cccc(NC(=O)C#Cc4ccc(C)cc4)c3)nc(OCCN3CCOCC3)nc21`, the viability at 72 h, 0.4 µM in data set [20] was 78%. In [21], the “fold change (FC)” value was found to be 2.6.
For the compound `Cc1ccc(C#CC(=O)Nc2cccc(Nc3nc(N[C@H]4CC[C@H](O)CC4)nc4scnc34)c2)cc1`, the “fold change (FC)” value in [12] amounted to 0.87. The viability at 72 h, 10 µM in data set [13] was found to be 19%.
Take `CCN1CCN(c2nc(Nc3cccc(C(=O)N[C@@H]4C[C@H]4c4ccccc4)c3)c3ncn(CC)c3n2)CC1`: the “fold change (FC)” value in data set [22] came to 1.3. In addition, the viability at 72 h, 0.83 µM in data set [23] was 71%.
